According to patent US20230340127A1, “METHODS AND COMPOSITIONS FOR CANCER TREATMENT BY INHIBITION OF FBXO44” (Sanford Burnham Prebys Medical Discovery Institute, priority 2022, published 2023):

System: MDA-MB-231-luc-derived mammary tumors
Test: MDA-MB-231-luc orthotopic mammary tumors in immunodeficient mice treated with F5446
Type: in vivo, mouse
Description: Animal studies: mice were maintained under pathogen free conditions in 14 hrs light/10 hrs dark cycle with ad libitum access to food and water. All animal handling and procedures used were performed in accordance with protocols approved by the Institutional Animal Care and Use Committee of SBP or UCSD. For intracardiac injections, 10^5 MDA-MB-231-luc cells transduced with lentivirus expressing non-targeting or FBXO44 shRNAs were resuspended in 100 μL DPBS and injected into the left ventricle of 6-week old female athymic nude mice (Envigo no. 069) anesthetized with isoflurane. Metastatic seeding was monitored weekly by intraperitoneal (i.p.) injection of 100 μL of 30 mg/mL D-Luciferin (Xenogen no.)CR-1001) 10 min prior to imaging using the IVIS Spectrum Xenogen Imaging System (Caliper Life Sciences). Images were analyzed using Living Image 3.0 software (Caliper Life Sciences). For ex vivo imaging of tissues, mice were injected with D-Luciferin prior to euthanasia, tissues harvested and placed in 24-well tissue culture plates containing 1 mL of 0.3 mg/mL D-Luciferin and imaged. Organs/tissues were fixed in 10% formalin and subjected to hematoxylin and eosin staining. For orthotopic injections of NSG mice, 3×10^6 MDA-MB-231-luc cells were suspended in 100 μL of PBS and injected into the mammary fat pads of 4- to 6-week-old female mice. For F5446 drug treatments, mice were randomly divided into 3 groups at day 12. The mice were administered vehicle (10% Cremophor EL in PBS) or F5446 at doses of 10 and 20 mg/kg body weight via i.p. injection on days 12, 14, 17, 19, 21 and 24 post-inoculation of cells. Tumor size was measured every 4-5 days (long diameter and short diameter) with a caliper and tumor volume calculated as 0.5×length×width×width. Mice were imaged weekly to monitor tumor growth and metastasis in vivo using an IVIS Spectrum Xenogen Imaging System (Caliper Life Sciences). All mice were euthanized at day 25 except 3 mice were taken out from each group for tumor IHC staining of γH2AX and cleaved Caspase 3 and quantitative RT-PCR analysis at day 21. […]

## COC(=O)c1cc2c(n1S(=O)(=O)c1ccc(Cl)cc1)C(=O)C(=O)c1[nH]cc(C(=O)OCc3ccccc3)c1-2 [F5446]
IHC of F5446-treated tumors (FIG. 12K)
  γH2AX and cleaved Caspase 3 in tumors: dose-dependent increase
Immunocompromised mice, 10 and 20 mg/kg i.p. (FIGS. 12H-12J)
  mammary tumor growth: inhibited mammary tumor growth in immunocompromised mice in a dose-dependent manner
qRT-PCR of F5446-treated tumors (FIG. 12L)
  expression of REs, IFN α/β, and ISGs in tumors: upregulated
